# Measured values reported in patent publication US8603986B2, “Compounds and methods for modulating cadherin-mediated processes” (McGill University, priority 2005, dated 2013).
# Marks after values point to notes of the source that are not given here.
# Legend:
# [1] = target: T1, N-cadherin/Fc chimeric protein (Homo sapiens, UniProt P19022); experiment: Cadherin/Fc binding assay: phage ELISA on N-cadherin/Fc; set-up: key to ELISA Phage Binding to N-Cadherin/Fc Chimeric Protein 1.2 mM calcium / ELISA Phage Binding to N-Cadherin/Fc Chimeric Protein 2 mM EDTA / ELISA Phage Binding to Cadherin/Fc Chimeric Proteins N−: +: Phage bound to the chimeric protein; −: No phage bound to the chimeric protein
# T1 construct: extracellular domain of human N-cadherin (Asp160-Ala724); purchased R&D Systems, Minneapolis, Minn
# T1 sequence (P19022 160-724): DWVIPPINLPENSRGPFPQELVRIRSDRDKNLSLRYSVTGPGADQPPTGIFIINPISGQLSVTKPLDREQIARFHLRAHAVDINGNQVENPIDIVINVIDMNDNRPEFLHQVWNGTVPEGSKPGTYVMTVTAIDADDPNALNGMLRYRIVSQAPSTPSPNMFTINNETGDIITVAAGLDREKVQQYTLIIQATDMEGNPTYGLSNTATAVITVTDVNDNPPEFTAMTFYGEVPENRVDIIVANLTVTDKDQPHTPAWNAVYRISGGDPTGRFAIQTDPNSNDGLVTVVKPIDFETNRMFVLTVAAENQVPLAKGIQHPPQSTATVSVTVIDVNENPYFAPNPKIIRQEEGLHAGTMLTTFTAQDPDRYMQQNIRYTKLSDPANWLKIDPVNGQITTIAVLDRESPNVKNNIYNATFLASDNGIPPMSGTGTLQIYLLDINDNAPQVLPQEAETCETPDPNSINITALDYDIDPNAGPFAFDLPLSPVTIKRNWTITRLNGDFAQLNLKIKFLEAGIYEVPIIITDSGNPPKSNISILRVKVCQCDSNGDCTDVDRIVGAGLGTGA
# Source text: (§1) The peptide libraries, Ph.D.-C7C™ and Ph.D.-12™ (New England BioLabs) were used in this study. These libraries are composed of 2×10^9 randomized 7 amino acid sequences flanked by cysteine residues and linear 12 amino acid sequences, respectively. The amino acid sequences are incorporated into the minor coat protein, pIII, of M13 phage. The N-cadherin/Fc chimeric protein (R&D Systems, Minneapolis, Minn.) consists of the extracellular domain of human N-cadherin (Asp160-Ala724) and the Fc region of human IgG1. The E-cadherin/Fc chimeric protein (R&D Systems, Minneapolis, Minn.) consists of the extracellular domain of human E-cadherin (Asp155-Ile707) and the Fc region of human IgG1.
# The binding of each clone to the cadherin/Fc chimeric proteins was confirmed by ELISA. Wells of ProBind microtiter plates (Falcon) were coated with either N-cadherin/Fc or E-cadherin/Fc chimeric protein (100 ng/well) or human IgG1 (which contains the Fc fragment) (100 ng/well). […] Non-coated wells were also used to exclude any phage that bound to the plastic surface. […] M13 phage without any insert were used to control the non-specific binding of the phage itself to the target. […] […] Horseradish peroxidase substrate, TMB (Sigma), was added to each well (100 μl/well and after color development the reaction was stopped by addition of 100 μl 0.5 M sulphuric acid to each well. The intensity of the color was measured at 450 nm.
# (§2) The phage clones shown to bind to the N-cadherin/Fc chimeric protein by ELISA were also evaluated for their ability to bind to E-cadherin/Fc and VE-cadherin/Fc chimeric proteins. The phage clones shown to bind to the E-cadherin/Fc chimeric protein by ELISA were also evaluated for their ability to bind to N-cadherin/Fc and VE-cadherin/Fc chimeric proteins. The same ELISA protocol described in the previous section was used to perform this evaluation with the exception that the wells were coated with either 100 ng N-cadherin/Fc, E-cadherin/Fc or VE-cadherin/Fc chimeric protein (R&D Systems, Minneapolis, Minn.).
# [2] = target: T2, E-cadherin/Fc chimeric protein (Homo sapiens, UniProt P12830); experiment: Cadherin/Fc binding assay: phage ELISA on E-cadherin/Fc; set-up: key: +: Phage bound to the chimeric protein; −: No phage bound to the chimeric protein
# T2 construct: extracellular domain of human E-cadherin (Asp155-Ile707); purchased R&D Systems, Minneapolis, Minn
# T2 sequence (P12830 155-707): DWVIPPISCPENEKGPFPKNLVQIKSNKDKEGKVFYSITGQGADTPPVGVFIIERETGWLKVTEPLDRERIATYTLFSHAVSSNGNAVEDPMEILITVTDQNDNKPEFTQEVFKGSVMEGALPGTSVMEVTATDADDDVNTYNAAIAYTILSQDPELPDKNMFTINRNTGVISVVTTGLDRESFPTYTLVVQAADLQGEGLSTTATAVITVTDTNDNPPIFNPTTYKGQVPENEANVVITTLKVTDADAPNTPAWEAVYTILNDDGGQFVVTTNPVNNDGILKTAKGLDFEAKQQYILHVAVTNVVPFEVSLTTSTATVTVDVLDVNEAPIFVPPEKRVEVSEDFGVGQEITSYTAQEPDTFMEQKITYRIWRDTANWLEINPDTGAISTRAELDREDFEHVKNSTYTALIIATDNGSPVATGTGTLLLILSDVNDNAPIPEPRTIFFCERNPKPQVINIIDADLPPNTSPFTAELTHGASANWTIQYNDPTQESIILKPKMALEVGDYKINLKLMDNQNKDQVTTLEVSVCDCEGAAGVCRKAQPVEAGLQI
# Source text: as §1
# (§3) The binding of each clone to the cadherin/Fc chimeric proteins was confirmed by ELISA. Wells of ProBind microtiter plates (Falcon) were coated with either N-cadherin/Fc or E-cadherin/Fc chimeric protein (100 ng/well) or human IgG1 (which contains the Fc fragment) (100 ng/well). After blocking the nonspecific sites with TBS containing 3% BSA and 1.2 mM CaCl2 for 1 h at 37° C., phage clones (10^9 pfu) diluted in TBST containing 3% BSA and 1.2 mM CaCl2 (100 μl/well). Non-coated wells were also used to exclude any phage that bound to the plastic surface. After 1 h incubation at room temperature, wells were washed 3 times with TBST containing 3% BSA and 1.2 mM CaCl2. M13 phage without any insert were used to control the non-specific binding of the phage itself to the target. Monoclonal anti-M13 antibody conjugated to horseradish peroxidase (Amersham Biosciences, Piscataway, N.J.) was diluted in TBST containing 3% BSA and 1.2 mM CaCl2 (1:2,000) and added to each well (100 μl/well). After 1 h incubation at room temperature, wells were washed three times with TBST containing 3% BSA and 1.2 mM CaCl2 and once with TBS containing 1.2 mM CaCl2. Horseradish peroxidase substrate, TMB (Sigma), was added to each well (100 μl/well and after color development the reaction was stopped by addition of 100 μl 0.5 M sulphuric acid to each well. The intensity of the color was measured at 450 nm.
# as §2
# [3] = target: T3, VE-cadherin/Fc chimeric protein (Homo sapiens, UniProt P33151); experiment: Cadherin specificity: phage ELISA on VE-cadherin/Fc; assay type: binding; set-up: key: +: Phage bound to the chimeric protein; −: No phage bound to the chimeric protein
# T3 construct: purchased R&D Systems, Minneapolis, Minn
# Experimental: as §3, §2
# [4] = Table 4, Ph.D.-12 library clones
# [5] = Table 7, Ph.D.-12 clones selected on E-cadherin/Fc
# [6] = Table 2, Ph.D.-C7C library clones
# [7] = Table 6, Ph.D.-C7C clones selected on E-cadherin/Fc
# T3 sequence (P33151 with tags, fused parts or gaps limits assumed, species assumed): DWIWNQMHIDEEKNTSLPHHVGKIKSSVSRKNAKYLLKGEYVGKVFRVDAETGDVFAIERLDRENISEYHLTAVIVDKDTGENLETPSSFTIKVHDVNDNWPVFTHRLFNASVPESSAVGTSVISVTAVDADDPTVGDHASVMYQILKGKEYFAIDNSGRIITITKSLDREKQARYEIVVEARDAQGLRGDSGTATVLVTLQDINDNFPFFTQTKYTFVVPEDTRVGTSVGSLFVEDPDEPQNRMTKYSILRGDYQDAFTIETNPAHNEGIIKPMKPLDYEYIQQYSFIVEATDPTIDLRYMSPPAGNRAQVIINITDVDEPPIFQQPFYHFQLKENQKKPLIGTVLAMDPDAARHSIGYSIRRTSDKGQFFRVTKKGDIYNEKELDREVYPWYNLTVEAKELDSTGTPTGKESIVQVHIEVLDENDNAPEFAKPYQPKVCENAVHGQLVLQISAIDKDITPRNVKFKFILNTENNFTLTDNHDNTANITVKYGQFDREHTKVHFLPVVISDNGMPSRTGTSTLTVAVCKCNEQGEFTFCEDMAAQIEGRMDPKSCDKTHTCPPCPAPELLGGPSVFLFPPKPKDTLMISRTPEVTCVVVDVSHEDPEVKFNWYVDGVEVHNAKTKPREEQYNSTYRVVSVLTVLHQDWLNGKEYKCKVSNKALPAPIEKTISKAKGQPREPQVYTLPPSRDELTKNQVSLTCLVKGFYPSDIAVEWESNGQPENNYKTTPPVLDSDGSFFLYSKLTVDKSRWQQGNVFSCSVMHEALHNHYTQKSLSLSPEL
sequence,measurement,setting,value
KWELTYFANSFP [Nc 12-a3],ELISA Phage Binding to N-Cadherin/Fc Chimeric Protein 1.2 mM calcium,[1]; [4],+
same,ELISA Phage Binding to N-Cadherin/Fc Chimeric Protein 2 mM EDTA,[1]; [4],+
same,ELISA Phage Binding to Cadherin/Fc Chimeric Proteins E−,[2]; [4],−
same,ELISA Phage Binding to Cadherin/Fc Chimeric Proteins VE−,[3]; [4],−
NWFIDFPVYPPL [Nc 12-a1],ELISA Phage Binding to N-Cadherin/Fc Chimeric Protein 1.2 mM calcium,[1]; [4],+
same,ELISA Phage Binding to N-Cadherin/Fc Chimeric Protein 2 mM EDTA,[1]; [4],+
same,ELISA Phage Binding to Cadherin/Fc Chimeric Proteins E−,[2]; [4],−
same,ELISA Phage Binding to Cadherin/Fc Chimeric Proteins VE−,[3]; [4],−
QWEIRYPWPSMG [Ec 12-a1],ELISA Phage Binding to Cadherin/Fc Chimeric Proteins N−,[1]; [5],+
same,ELISA Phage Binding to Cadherin/Fc Chimeric Proteins E−,[2]; [5],+
same,ELISA Phage Binding to Cadherin/Fc Chimeric Proteins VE−,[3]; [5],−
QWQLHWPASKQA [Ec 12-11],ELISA Phage Binding to Cadherin/Fc Chimeric Proteins N−,[1]; [5],+
same,ELISA Phage Binding to Cadherin/Fc Chimeric Proteins E−,[2]; [5],+
same,ELISA Phage Binding to Cadherin/Fc Chimeric Proteins VE−,[3]; [5],−
QWTITYPKPPAL [Ec 12-13],ELISA Phage Binding to Cadherin/Fc Chimeric Proteins N−,[1]; [5],+
same,ELISA Phage Binding to Cadherin/Fc Chimeric Proteins E−,[2]; [5],+
same,ELISA Phage Binding to Cadherin/Fc Chimeric Proteins VE−,[3]; [5],−
SWELYYPLRANL [Ec 12-a2],ELISA Phage Binding to Cadherin/Fc Chimeric Proteins N−,[1]; [5],+
same,ELISA Phage Binding to Cadherin/Fc Chimeric Proteins E−,[2]; [5],+
same,ELISA Phage Binding to Cadherin/Fc Chimeric Proteins VE−,[3]; [5],−
SWLAVWPATGAS [Nc 12-a10],ELISA Phage Binding to N-Cadherin/Fc Chimeric Protein 1.2 mM calcium,[1]; [4],+
same,ELISA Phage Binding to N-Cadherin/Fc Chimeric Protein 2 mM EDTA,[1]; [4],+
same,ELISA Phage Binding to Cadherin/Fc Chimeric Proteins E−,[2]; [4],+
same,ELISA Phage Binding to Cadherin/Fc Chimeric Proteins VE−,[3]; [4],−
SWTFYWPDAQLG [Ec 12-06],ELISA Phage Binding to Cadherin/Fc Chimeric Proteins N−,[1]; [5],+
same,ELISA Phage Binding to Cadherin/Fc Chimeric Proteins E−,[2]; [5],+
same,ELISA Phage Binding to Cadherin/Fc Chimeric Proteins VE−,[3]; [5],−
SWTLYTPSGQSK [Nc 12-04],ELISA Phage Binding to N-Cadherin/Fc Chimeric Protein 1.2 mM calcium,[1]; [4],+
same,ELISA Phage Binding to N-Cadherin/Fc Chimeric Protein 2 mM EDTA,[1]; [4],−
same,ELISA Phage Binding to Cadherin/Fc Chimeric Proteins E−,[2]; [4],−
same,ELISA Phage Binding to Cadherin/Fc Chimeric Proteins VE−,[3]; [4],−
SWTWHFPESPPP [Ec 12-01],ELISA Phage Binding to Cadherin/Fc Chimeric Proteins N−,[1]; [5],+
same,ELISA Phage Binding to Cadherin/Fc Chimeric Proteins E−,[2]; [5],+*
same,ELISA Phage Binding to Cadherin/Fc Chimeric Proteins VE−,[3]; [5],−**
WEFSICETC [Nc 5],ELISA Phage Binding to N-Cadherin/Fc Chimeric Protein 1.2 mM calcium,[1]; [6],+
same,ELISA Phage Binding to N-Cadherin/Fc Chimeric Protein 2 mM EDTA,[1]; [6],−
same,ELISA Phage Binding to Cadherin/Fc Chimeric Proteins E−,[2]; [6],−
same,ELISA Phage Binding to Cadherin/Fc Chimeric Proteins VE−,[3]; [6],−
WELCVSSSC [Nc 25],ELISA Phage Binding to N-Cadherin/Fc Chimeric Protein 1.2 mM calcium,[1]; [6],+
same,ELISA Phage Binding to N-Cadherin/Fc Chimeric Protein 2 mM EDTA,[1]; [6],−
same,ELISA Phage Binding to Cadherin/Fc Chimeric Proteins E−,[2]; [6],−
same,ELISA Phage Binding to Cadherin/Fc Chimeric Proteins VE−,[3]; [6],−
WELRVSSPC [Nc a7],ELISA Phage Binding to N-Cadherin/Fc Chimeric Protein 1.2 mM calcium,[1]; [6],+
same,ELISA Phage Binding to N-Cadherin/Fc Chimeric Protein 2 mM EDTA,[1]; [6],−
same,ELISA Phage Binding to Cadherin/Fc Chimeric Proteins E−,[2]; [6],−
same,ELISA Phage Binding to Cadherin/Fc Chimeric Proteins VE−,[3]; [6],−
WELVQCLTC [Ec 1],ELISA Phage Binding to Cadherin/Fc Chimeric Proteins N−,[1]; [7],+
same,ELISA Phage Binding to Cadherin/Fc Chimeric Proteins E−,[2]; [7],+
same,ELISA Phage Binding to Cadherin/Fc Chimeric Proteins VE−,[3]; [7],−
